# Experimental data published in the NIST ThermoML archive (doi:10.1016/j.jct.2008.01.018).
# Numbers after ± are expanded uncertainties.
# Test: mn = molality of the nth substance listed, in mol/kg
# Conditions: 101 kPa, Liquid; for speed of sound: Sing-around technique in a fixed-path interferometer
structure (smiles),measurement,setting,value
O=P([O-])(O)O.[Na+] [sodium dihydrogen phosphate] + O,speed of sound,"283.15 K, m1 = 0.0343",1451.8 ± 0.72 m/s
same,speed of sound,"283.15 K, m1 = 0.0484",1453.5 ± 0.73 m/s
same,speed of sound,"283.15 K, m1 = 0.1399",1463.6 ± 0.73 m/s
same,speed of sound,"283.15 K, m1 = 0.167",1466.5 ± 0.73 m/s
same,speed of sound,"283.15 K, m1 = 0.1967",1469.7 ± 0.73 m/s
same,speed of sound,"283.15 K, m1 = 0.2231",1472.6 ± 0.73 m/s
same,speed of sound,"283.15 K, m1 = 0.2506",1475.5 ± 0.74 m/s
same,speed of sound,"283.15 K, m1 = 0.3229",1483.2 ± 0.74 m/s
same,speed of sound,"283.15 K, m1 = 0.3586",1486.9 ± 0.74 m/s
same,speed of sound,"283.15 K, m1 = 0.4346",1494.7 ± 0.74 m/s
same,speed of sound,"283.15 K, m1 = 0.5108",1502.2 ± 0.75 m/s
same,speed of sound,"283.15 K, m1 = 0.5812",1509.2 ± 0.75 m/s
same,speed of sound,"283.15 K, m1 = 0.6658",1517.5 ± 0.75 m/s
same,speed of sound,"283.15 K, m1 = 0.7462",1525.3 ± 0.76 m/s
same,speed of sound,"283.15 K, m1 = 0.9163",1541.5 ± 0.76 m/s
same,speed of sound,"283.15 K, m1 = 1.093",1558.4 ± 0.77 m/s
same,speed of sound,"283.15 K, m1 = 1.262",1573.7 ± 0.78 m/s
same,speed of sound,"283.15 K, m1 = 1.451",1590.5 ± 0.79 m/s
same,speed of sound,"283.15 K, m1 = 1.758",1617 ± 0.8 m/s
same,speed of sound,"283.15 K, m1 = 2.041",1641.2 ± 0.82 m/s
same,speed of sound,"283.15 K, m1 = 2.374",1669.2 ± 0.83 m/s
same,speed of sound,"283.15 K, m1 = 2.747",1699.5 ± 0.85 m/s
same,speed of sound,"283.15 K, m1 = 3.115",1727.2 ± 0.87 m/s
same,speed of sound,"283.15 K, m1 = 3.512",1758.2 ± 0.89 m/s
same,mass density,"283.15 K, m1 = 0.0343",1002.89 ± 0.16 kg/m3
same,mass density,"283.15 K, m1 = 0.0484",1004.16 ± 0.16 kg/m3
same,mass density,"283.15 K, m1 = 0.1399",1012.4 ± 0.17 kg/m3
same,mass density,"283.15 K, m1 = 0.167",1014.82 ± 0.17 kg/m3
same,mass density,"283.15 K, m1 = 0.1967",1017.47 ± 0.18 kg/m3
same,mass density,"283.15 K, m1 = 0.2231",1019.84 ± 0.18 kg/m3
same,mass density,"283.15 K, m1 = 0.2506",1022.23 ± 0.18 kg/m3
same,mass density,"283.15 K, m1 = 0.3229",1028.59 ± 0.19 kg/m3
same,mass density,"283.15 K, m1 = 0.3586",1031.67 ± 0.2 kg/m3
same,mass density,"283.15 K, m1 = 0.4346",1038.07 ± 0.2 kg/m3
same,mass density,"283.15 K, m1 = 0.5108",1044.45 ± 0.21 kg/m3
same,mass density,"283.15 K, m1 = 0.5812",1050.36 ± 0.22 kg/m3
same,mass density,"283.15 K, m1 = 0.6658",1057.33 ± 0.23 kg/m3
same,mass density,"283.15 K, m1 = 0.7462",1063.82 ± 0.24 kg/m3
same,mass density,"283.15 K, m1 = 0.9163",1077.42 ± 0.26 kg/m3
same,mass density,"283.15 K, m1 = 1.093",1091.46 ± 0.28 kg/m3
same,mass density,"283.15 K, m1 = 1.262",1104.21 ± 0.3 kg/m3
same,mass density,"283.15 K, m1 = 1.451",1117.95 ± 0.32 kg/m3
same,mass density,"283.15 K, m1 = 1.758",1139.71 ± 0.36 kg/m3
same,mass density,"283.15 K, m1 = 2.041",1159.21 ± 0.39 kg/m3
same,mass density,"283.15 K, m1 = 2.374",1181.48 ± 0.42 kg/m3
same,mass density,"283.15 K, m1 = 2.747",1205.29 ± 0.46 kg/m3
same,mass density,"283.15 K, m1 = 3.115",1226.77 ± 0.49 kg/m3
same,mass density,"283.15 K, m1 = 3.512",1250.32 ± 0.53 kg/m3
same,speed of sound,"288.15 K, m1 = 0.0343",1470 ± 0.73 m/s
same,speed of sound,"288.15 K, m1 = 0.0484",1471.6 ± 0.73 m/s
same,speed of sound,"288.15 K, m1 = 0.1399",1481.2 ± 0.74 m/s
same,speed of sound,"288.15 K, m1 = 0.167",1484.1 ± 0.74 m/s
same,speed of sound,"288.15 K, m1 = 0.1967",1487.2 ± 0.74 m/s
same,speed of sound,"288.15 K, m1 = 0.2231",1490 ± 0.74 m/s
same,speed of sound,"288.15 K, m1 = 0.2506",1492.8 ± 0.74 m/s
same,speed of sound,"288.15 K, m1 = 0.3229",1500.2 ± 0.75 m/s
same,speed of sound,"288.15 K, m1 = 0.3586",1503.7 ± 0.75 m/s
same,speed of sound,"288.15 K, m1 = 0.4346",1511.1 ± 0.75 m/s
same,speed of sound,"288.15 K, m1 = 0.5108",1518.4 ± 0.75 m/s
same,speed of sound,"288.15 K, m1 = 0.5812",1525.2 ± 0.76 m/s
same,speed of sound,"288.15 K, m1 = 0.6658",1533.1 ± 0.76 m/s
same,speed of sound,"288.15 K, m1 = 0.7462",1540.5 ± 0.76 m/s
same,speed of sound,"288.15 K, m1 = 0.9163",1556.1 ± 0.77 m/s
same,speed of sound,"288.15 K, m1 = 1.093",1572.3 ± 0.78 m/s
same,speed of sound,"288.15 K, m1 = 1.262",1587 ± 0.78 m/s
same,speed of sound,"288.15 K, m1 = 1.451",1602.9 ± 0.79 m/s
same,speed of sound,"288.15 K, m1 = 1.758",1628.3 ± 0.81 m/s
same,speed of sound,"288.15 K, m1 = 2.041",1651.4 ± 0.82 m/s
same,speed of sound,"288.15 K, m1 = 2.374",1678.2 ± 0.83 m/s
same,speed of sound,"288.15 K, m1 = 2.747",1707.2 ± 0.85 m/s
same,speed of sound,"288.15 K, m1 = 3.115",1733.6 ± 0.87 m/s
same,speed of sound,"288.15 K, m1 = 3.512",1763.3 ± 0.89 m/s
same,mass density,"288.15 K, m1 = 0.0343",1002.25 ± 0.16 kg/m3
same,mass density,"288.15 K, m1 = 0.0484",1003.5 ± 0.15 kg/m3
same,mass density,"288.15 K, m1 = 0.1399",1011.65 ± 0.17 kg/m3
same,mass density,"288.15 K, m1 = 0.167",1014.03 ± 0.17 kg/m3
same,mass density,"288.15 K, m1 = 0.1967",1016.66 ± 0.18 kg/m3
same,mass density,"288.15 K, m1 = 0.2231",1019 ± 0.18 kg/m3
same,mass density,"288.15 K, m1 = 0.2506",1021.37 ± 0.18 kg/m3
same,mass density,"288.15 K, m1 = 0.3229",1027.65 ± 0.19 kg/m3
same,mass density,"288.15 K, m1 = 0.3586",1030.7 ± 0.19 kg/m3
same,mass density,"288.15 K, m1 = 0.4346",1037.04 ± 0.2 kg/m3
same,mass density,"288.15 K, m1 = 0.5108",1043.36 ± 0.21 kg/m3
same,mass density,"288.15 K, m1 = 0.5812",1049.21 ± 0.22 kg/m3
same,mass density,"288.15 K, m1 = 0.6658",1056.12 ± 0.23 kg/m3
same,mass density,"288.15 K, m1 = 0.7462",1062.54 ± 0.24 kg/m3
same,mass density,"288.15 K, m1 = 0.9163",1076.03 ± 0.26 kg/m3
same,mass density,"288.15 K, m1 = 1.093",1089.96 ± 0.28 kg/m3
same,mass density,"288.15 K, m1 = 1.262",1102.62 ± 0.3 kg/m3
same,mass density,"288.15 K, m1 = 1.451",1116.26 ± 0.32 kg/m3
same,mass density,"288.15 K, m1 = 1.758",1137.89 ± 0.35 kg/m3
same,mass density,"288.15 K, m1 = 2.041",1157.28 ± 0.38 kg/m3
same,mass density,"288.15 K, m1 = 2.374",1179.42 ± 0.42 kg/m3
same,mass density,"288.15 K, m1 = 2.747",1203.12 ± 0.46 kg/m3
same,mass density,"288.15 K, m1 = 3.115",1224.51 ± 0.49 kg/m3
same,mass density,"288.15 K, m1 = 3.512",1247.97 ± 0.53 kg/m3
same,speed of sound,"293.15 K, m1 = 0.0343",1486 ± 0.74 m/s
same,speed of sound,"293.15 K, m1 = 0.0484",1487.6 ± 0.74 m/s
same,speed of sound,"293.15 K, m1 = 0.1399",1496.9 ± 0.74 m/s
same,speed of sound,"293.15 K, m1 = 0.167",1499.7 ± 0.74 m/s
same,speed of sound,"293.15 K, m1 = 0.1967",1502.7 ± 0.75 m/s
same,speed of sound,"293.15 K, m1 = 0.2231",1505.3 ± 0.75 m/s
same,speed of sound,"293.15 K, m1 = 0.2506",1508 ± 0.75 m/s
same,speed of sound,"293.15 K, m1 = 0.3229",1515.1 ± 0.75 m/s
same,speed of sound,"293.15 K, m1 = 0.3586",1518.5 ± 0.75 m/s
same,speed of sound,"293.15 K, m1 = 0.4346",1525.6 ± 0.76 m/s
same,speed of sound,"293.15 K, m1 = 0.5108",1532.6 ± 0.76 m/s
same,speed of sound,"293.15 K, m1 = 0.5812",1539.1 ± 0.76 m/s
same,speed of sound,"293.15 K, m1 = 0.6658",1546.8 ± 0.77 m/s
same,speed of sound,"293.15 K, m1 = 0.7462",1553.9 ± 0.77 m/s
same,speed of sound,"293.15 K, m1 = 0.9163",1568.9 ± 0.78 m/s
same,speed of sound,"293.15 K, m1 = 1.093",1584.3 ± 0.78 m/s
same,speed of sound,"293.15 K, m1 = 1.262",1598.5 ± 0.79 m/s
same,speed of sound,"293.15 K, m1 = 1.451",1613.8 ± 0.8 m/s
same,speed of sound,"293.15 K, m1 = 1.758",1638.1 ± 0.81 m/s
same,speed of sound,"293.15 K, m1 = 2.041",1660.2 ± 0.82 m/s
same,speed of sound,"293.15 K, m1 = 2.374",1685.9 ± 0.84 m/s
same,speed of sound,"293.15 K, m1 = 2.747",1713.7 ± 0.85 m/s
same,speed of sound,"293.15 K, m1 = 3.115",1739 ± 0.87 m/s
same,speed of sound,"293.15 K, m1 = 3.512",1767.4 ± 0.89 m/s
same,mass density,"293.15 K, m1 = 0.0343",1001.32 ± 0.16 kg/m3
same,mass density,"293.15 K, m1 = 0.0484",1002.56 ± 0.15 kg/m3
same,mass density,"293.15 K, m1 = 0.1399",1010.62 ± 0.17 kg/m3
same,mass density,"293.15 K, m1 = 0.167",1012.98 ± 0.17 kg/m3
same,mass density,"293.15 K, m1 = 0.1967",1015.58 ± 0.17 kg/m3
same,mass density,"293.15 K, m1 = 0.2231",1017.9 ± 0.18 kg/m3
same,mass density,"293.15 K, m1 = 0.2506",1020.25 ± 0.18 kg/m3
same,mass density,"293.15 K, m1 = 0.3229",1026.47 ± 0.19 kg/m3
same,mass density,"293.15 K, m1 = 0.3586",1029.5 ± 0.19 kg/m3
same,mass density,"293.15 K, m1 = 0.4346",1035.78 ± 0.2 kg/m3
same,mass density,"293.15 K, m1 = 0.5108",1042.04 ± 0.21 kg/m3
